According to ChEMBL document CHEMBL1909046, “DrugMatrix in vitro pharmacology data”:

Assays:
[1] = molecular target: Insulin receptor (Rattus norvegicus, UniProt P15127); assay type: cell membranes, Wistar, Liver, Membrane; note: in other assays of this panel Not Active means under 50% inhibition at 10 µM
[2] = molecular target: T1, 5-hydroxytryptamine receptor 2C (Homo sapiens, UniProt P28335); assay: DRUGMATRIX: Serotonin (5-Hydroxytryptamine) 5-HT2C radioligand binding (ligand: [3H] Mesulergine); assay type: cell membranes, CHO-K1, Membrane; details: cho-k1; Not Active = under 50% inhibition at 10 µM
T1 sequence (P28335 whole entry): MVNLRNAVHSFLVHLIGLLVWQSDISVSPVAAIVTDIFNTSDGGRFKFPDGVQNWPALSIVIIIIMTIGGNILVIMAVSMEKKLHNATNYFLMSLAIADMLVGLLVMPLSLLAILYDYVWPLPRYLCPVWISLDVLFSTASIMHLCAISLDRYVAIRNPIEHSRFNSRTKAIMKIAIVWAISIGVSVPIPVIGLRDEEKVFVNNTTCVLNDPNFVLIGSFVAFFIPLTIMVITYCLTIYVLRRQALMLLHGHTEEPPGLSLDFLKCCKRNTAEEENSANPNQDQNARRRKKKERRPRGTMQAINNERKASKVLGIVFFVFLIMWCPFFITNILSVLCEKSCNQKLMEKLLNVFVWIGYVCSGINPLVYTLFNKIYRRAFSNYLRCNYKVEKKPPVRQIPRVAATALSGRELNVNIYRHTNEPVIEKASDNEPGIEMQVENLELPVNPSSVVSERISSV

[3] = DRUGMATRIX: Potassium Channel [KATP] radioligand binding (ligand: [3H] Glyburide); assay type: cell membranes, Membrane; details: hit-t15; Not Active = under 50% inhibition at 10 µM
[4] = molecular target: Protein kinase C alpha type (Homo sapiens, UniProt P17252); assay type: cell-based; details: sf9;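 note: inhibition of PKCalpha kinase activity measured in an enzyme assay with histone as the phosphorylation substrate; in other assays of this panel Not Active means under 50% inhibition at 10 µM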
[5] = molecular target: Tyrosine-protein kinase Lck (Homo sapiens, UniProt P06239); assay: DRUGMATRIX: Protein Tyrosine Kinase, LCK enzyme inhibition (substrate: Poly(Glu:Tyr)); assay type: cell-based, Insect cells; details: insect cells, Not Active = under 50% inhibition at 10 µM
[6] = molecular target: T2, Cathepsin G (Homo sapiens, UniProt P08311); assay type: tissue-based; details: neutrophil;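 note: inhibition of Cathepsin G enzyme activity, tested on an AMC-conjugated peptide substrate; in other assays of this panel Not Active means under 50% inhibition at 10 µM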
T2 sequence (P08311 whole entry): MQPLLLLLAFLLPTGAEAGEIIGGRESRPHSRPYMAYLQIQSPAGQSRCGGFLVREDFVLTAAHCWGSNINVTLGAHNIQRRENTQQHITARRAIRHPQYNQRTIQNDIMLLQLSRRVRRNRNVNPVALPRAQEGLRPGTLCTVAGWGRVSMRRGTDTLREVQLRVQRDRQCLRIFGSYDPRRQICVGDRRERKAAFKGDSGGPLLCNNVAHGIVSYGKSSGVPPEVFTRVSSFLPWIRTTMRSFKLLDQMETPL

Sequence of Insulin receptor (P15127 27-759 limits assumed): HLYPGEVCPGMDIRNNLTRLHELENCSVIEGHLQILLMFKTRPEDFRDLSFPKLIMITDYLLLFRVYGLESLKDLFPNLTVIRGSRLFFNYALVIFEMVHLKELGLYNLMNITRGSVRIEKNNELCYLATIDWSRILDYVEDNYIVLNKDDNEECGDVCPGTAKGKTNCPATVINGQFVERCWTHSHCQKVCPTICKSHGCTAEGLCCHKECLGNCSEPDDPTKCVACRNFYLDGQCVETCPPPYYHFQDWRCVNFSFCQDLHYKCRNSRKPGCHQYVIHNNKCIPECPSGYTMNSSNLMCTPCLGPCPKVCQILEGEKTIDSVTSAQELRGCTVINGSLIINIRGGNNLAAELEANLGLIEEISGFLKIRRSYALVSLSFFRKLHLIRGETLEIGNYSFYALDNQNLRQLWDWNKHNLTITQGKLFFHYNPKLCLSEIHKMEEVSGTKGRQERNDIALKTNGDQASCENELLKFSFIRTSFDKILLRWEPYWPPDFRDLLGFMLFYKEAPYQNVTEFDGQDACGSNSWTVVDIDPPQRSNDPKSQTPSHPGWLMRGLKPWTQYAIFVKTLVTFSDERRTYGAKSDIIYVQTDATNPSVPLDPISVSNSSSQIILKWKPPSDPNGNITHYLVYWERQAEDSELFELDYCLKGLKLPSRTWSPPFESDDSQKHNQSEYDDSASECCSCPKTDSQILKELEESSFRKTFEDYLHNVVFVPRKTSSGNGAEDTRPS
Sequence of Insulin receptor (P15127 764-1383 limits assumed): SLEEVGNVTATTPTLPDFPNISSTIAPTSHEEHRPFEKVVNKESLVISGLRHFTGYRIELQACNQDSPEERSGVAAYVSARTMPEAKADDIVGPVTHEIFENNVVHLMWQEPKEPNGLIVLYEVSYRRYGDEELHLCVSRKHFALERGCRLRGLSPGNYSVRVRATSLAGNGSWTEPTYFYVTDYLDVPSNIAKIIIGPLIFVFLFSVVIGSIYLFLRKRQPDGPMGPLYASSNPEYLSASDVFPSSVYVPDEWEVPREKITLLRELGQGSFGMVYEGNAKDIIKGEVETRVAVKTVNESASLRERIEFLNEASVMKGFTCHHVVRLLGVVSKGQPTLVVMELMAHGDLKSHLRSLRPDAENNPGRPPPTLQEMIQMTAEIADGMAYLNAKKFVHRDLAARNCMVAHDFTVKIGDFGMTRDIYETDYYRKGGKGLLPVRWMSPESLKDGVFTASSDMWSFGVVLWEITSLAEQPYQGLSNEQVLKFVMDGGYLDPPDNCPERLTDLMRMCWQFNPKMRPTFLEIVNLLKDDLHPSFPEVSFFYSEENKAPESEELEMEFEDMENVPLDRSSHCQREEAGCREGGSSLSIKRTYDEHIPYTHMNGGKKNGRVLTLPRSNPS
Sequence of Tyrosine-protein kinase Lck (P06239 whole entry): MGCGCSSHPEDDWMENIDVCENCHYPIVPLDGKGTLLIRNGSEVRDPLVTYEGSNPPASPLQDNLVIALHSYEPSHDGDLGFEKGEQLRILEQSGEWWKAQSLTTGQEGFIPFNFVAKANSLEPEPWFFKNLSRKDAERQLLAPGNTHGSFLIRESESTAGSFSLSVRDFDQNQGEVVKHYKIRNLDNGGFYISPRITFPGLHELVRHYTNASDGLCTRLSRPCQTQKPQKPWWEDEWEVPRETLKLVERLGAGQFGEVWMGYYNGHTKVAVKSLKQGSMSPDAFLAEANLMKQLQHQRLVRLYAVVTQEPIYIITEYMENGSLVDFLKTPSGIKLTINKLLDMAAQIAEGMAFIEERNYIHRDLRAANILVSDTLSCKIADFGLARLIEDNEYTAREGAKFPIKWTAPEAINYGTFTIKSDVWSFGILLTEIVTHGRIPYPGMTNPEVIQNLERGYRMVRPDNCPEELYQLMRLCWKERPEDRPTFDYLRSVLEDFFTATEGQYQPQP

Molecule	IC50 [1]	IC50 [2]	IC50 [3]	Ki [3]	IC50 [4]	IC50 [5]	IC50 [6]	Ki [1]	Ki [2]	Ki [4]	Ki [5]	Ki [6]	IC50 ([1]; read-out: IC50) [nM]	Ki ([1]; read-out: Ki) [nM]	IC50 ([5]; read-out: IC50) [nM]
CC(C(=O)O)c1ccc(CC2CCCC2=O)cc1 (centres undefined) [LOXOPROFEN]	Not Active	Not Active	Not Active	Not Active	Not Active	Not Active	Not Active	–	–	–	–	–	–	–	–
Cc1cccc(Nc2ccccc2C(=O)O)c1C [MEFENAMIC ACID]	Not Active	Not Active	Not Active	Not Active	Not Active	Not Active	Not Active	–	–	–	–	–	–	–	–
CC(=O)O[C@]1(C(C)=O)CC[C@H]2[C@@H]3C=C(C)C4=CC(=O)CC[C@]4(C)[C@H]3CC[C@@]21C [MEGESTROL ACETATE]	Not Active	Not Active	Not Active	Not Active	Not Active	Not Active	Not Active	–	–	–	–	–	–	–	–
COc1ccccc1OCC(O)COC(N)=O (centres undefined) [METHOCARBAMOL]	Not Active	Not Active	Not Active	Not Active	Not Active	Not Active	Not Active	–	–	–	–	–	–	–	–
CN(Cc1cnc2nc(N)nc(N)c2n1)c1ccc(C(=O)N[C@@H](CCC(=O)O)C(=O)O)cc1 [METHOTREXATE]	Not Active	Not Active	Not Active	Not Active	Not Active	Not Active	Not Active	–	–	–	–	–	–	–	–
COC(=O)c1ccccc1O [METHYL SALICYLATE]	Not Active	Not Active	Not Active	Not Active	Not Active	Not Active	Not Active	–	–	–	–	–	–	–	–
COc1ccc2cc(CCC(C)=O)ccc2c1 [NABUMETONE]	Not Active	Not Active	Not Active	Not Active	Not Active	Not Active	Not Active	–	–	–	–	–	–	–	–
O=C(O)c1cccnc1 [NIACIN]	Not Active	Not Active	Not Active	Not Active	Not Active	Not Active	Not Active	–	–	–	–	–	–	–	–
CNC(=C[N+](=O)[O-])NCCSCc1csc(CN(C)C)n1 [NIZATIDINE]	Not Active	Not Active	Not Active	Not Active	Not Active	Not Active	Not Active	–	–	–	–	–	–	–	–
C[C@]12C/C(=C/O)C(=O)C[C@@H]1CC[C@@H]1[C@@H]2CC[C@@]2(C)[C@H]1CC[C@]2(C)O [OXYMETHOLONE]	Not Active	Not Active	Not Active	Not Active	Not Active	Not Active	Not Active	–	–	–	–	–	–	–	–
CC(C)(CO)C(O)C(=O)NCCCO (centres undefined) [PANTHENOL]	Not Active	Not Active	Not Active	Not Active	Not Active	Not Active	Not Active	–	–	–	–	–	–	–	–
COc1ccc(Cc2nccc3cc(OC)c(OC)cc23)cc1OC [PAPAVERINE]	Not Active	Not Active	Not Active	Not Active	Not Active	Not Active	Not Active	–	–	–	–	–	–	–	–
OCCN1CCN(CCCN2c3ccccc3Sc3ccc(Cl)cc32)CC1 [PERPHENAZINE]	Not Active	Not Active	Not Active	Not Active	Not Active	Not Active	Not Active	–	–	–	–	–	–	–	–
CCCCC1C(=O)N(c2ccccc2)N(c2ccccc2)C1=O [PHENYLBUTAZONE]	Not Active	Not Active	Not Active	Not Active	Not Active	Not Active	Not Active	–	–	–	–	–	–	–	–
Cc1cccc(Nc2cc(Cl)nc(SCC(=O)O)n2)c1C [PIRINIXIC ACID]	Not Active	Not Active	Not Active	Not Active	Not Active	Not Active	Not Active	–	–	–	–	–	–	–	–
CC[C@H](C)C(=O)O[C@H]1C[C@H](O)C=C2C=C[C@H](C)[C@H](CC[C@@H](O)C[C@@H](O)CC(=O)O)[C@H]21 [PRAVASTATIN]	Not Active	Not Active	Not Active	Not Active	Not Active	Not Active	Not Active	–	–	–	–	–	–	–	–
CC(C)(Sc1cc(C(C)(C)C)c(O)c(C(C)(C)C)c1)Sc1cc(C(C)(C)C)c(O)c(C(C)(C)C)c1 [PROBUCOL]	Not Active	Not Active	Not Active	Not Active	Not Active	Not Active	Not Active	–	–	–	–	–	–	–	–
COBALT(II) ACETYLACETONATE	Not Active	Not Active	Not Active	Not Active	Not Active	Not Active	Not Active	Not Active	Not Active	Not Active	Not Active	Not Active	–	–	–
INSULIN HUMAN	–	Not Active	Not Active	Not Active	Not Active	–	Not Active	–	Not Active	Not Active	–	Not Active	1.93	1.82	18100
POLYVINYL ALCOHOL	Not Active	Not Active	Not Active	Not Active	Not Active	Not Active	Not Active	Not Active	Not Active	Not Active	Not Active	Not Active	–	–	–
